The target in assay [1] is PI3Kα (Homo sapiens (Human), UniProt P42336). The following applies: read-out: PI3Kα AlphaScreen ® Ki. In general terms: Bead proximity is the source of the signal in Alpha formats.
For assay [2], the system named is phosphorylation of Akt at Serine 473 in U87 MG cells. Briefly: cells. The following applies: Homo sapiens, U-87 MG, 2 h, read-out: U87Cell IC50, pAkt (Ser 473), U87 MG cells, two hours with compound.

Sequence of PI3Kα (P42336 whole entry): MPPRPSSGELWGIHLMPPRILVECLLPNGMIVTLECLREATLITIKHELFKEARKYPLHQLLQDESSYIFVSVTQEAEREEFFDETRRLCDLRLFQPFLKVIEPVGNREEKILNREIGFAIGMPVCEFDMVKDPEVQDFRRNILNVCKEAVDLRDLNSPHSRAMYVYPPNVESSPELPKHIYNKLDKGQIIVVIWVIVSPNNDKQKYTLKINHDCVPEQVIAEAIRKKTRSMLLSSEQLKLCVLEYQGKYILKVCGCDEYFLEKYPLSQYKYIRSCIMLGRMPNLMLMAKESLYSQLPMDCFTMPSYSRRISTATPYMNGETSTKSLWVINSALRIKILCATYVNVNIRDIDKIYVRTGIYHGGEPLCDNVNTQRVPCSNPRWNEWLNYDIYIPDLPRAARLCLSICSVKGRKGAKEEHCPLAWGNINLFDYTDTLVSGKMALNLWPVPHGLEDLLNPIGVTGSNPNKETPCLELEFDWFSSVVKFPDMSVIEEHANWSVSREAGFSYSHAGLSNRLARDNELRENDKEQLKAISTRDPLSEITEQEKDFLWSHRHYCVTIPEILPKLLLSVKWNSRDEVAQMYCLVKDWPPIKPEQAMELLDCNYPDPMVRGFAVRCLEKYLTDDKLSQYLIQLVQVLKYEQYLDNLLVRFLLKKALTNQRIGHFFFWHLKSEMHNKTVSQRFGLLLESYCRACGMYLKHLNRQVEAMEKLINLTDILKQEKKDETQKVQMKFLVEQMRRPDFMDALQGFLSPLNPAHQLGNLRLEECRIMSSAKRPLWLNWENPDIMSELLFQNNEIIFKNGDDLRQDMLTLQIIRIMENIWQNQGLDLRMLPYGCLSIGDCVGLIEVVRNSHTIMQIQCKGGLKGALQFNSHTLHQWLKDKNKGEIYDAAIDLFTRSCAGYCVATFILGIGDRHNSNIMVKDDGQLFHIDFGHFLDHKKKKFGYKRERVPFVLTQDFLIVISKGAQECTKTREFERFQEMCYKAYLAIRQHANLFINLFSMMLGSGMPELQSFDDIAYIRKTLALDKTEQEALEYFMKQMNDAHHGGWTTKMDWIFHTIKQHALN
Sequence of PI3Kα (P27986 whole entry partner): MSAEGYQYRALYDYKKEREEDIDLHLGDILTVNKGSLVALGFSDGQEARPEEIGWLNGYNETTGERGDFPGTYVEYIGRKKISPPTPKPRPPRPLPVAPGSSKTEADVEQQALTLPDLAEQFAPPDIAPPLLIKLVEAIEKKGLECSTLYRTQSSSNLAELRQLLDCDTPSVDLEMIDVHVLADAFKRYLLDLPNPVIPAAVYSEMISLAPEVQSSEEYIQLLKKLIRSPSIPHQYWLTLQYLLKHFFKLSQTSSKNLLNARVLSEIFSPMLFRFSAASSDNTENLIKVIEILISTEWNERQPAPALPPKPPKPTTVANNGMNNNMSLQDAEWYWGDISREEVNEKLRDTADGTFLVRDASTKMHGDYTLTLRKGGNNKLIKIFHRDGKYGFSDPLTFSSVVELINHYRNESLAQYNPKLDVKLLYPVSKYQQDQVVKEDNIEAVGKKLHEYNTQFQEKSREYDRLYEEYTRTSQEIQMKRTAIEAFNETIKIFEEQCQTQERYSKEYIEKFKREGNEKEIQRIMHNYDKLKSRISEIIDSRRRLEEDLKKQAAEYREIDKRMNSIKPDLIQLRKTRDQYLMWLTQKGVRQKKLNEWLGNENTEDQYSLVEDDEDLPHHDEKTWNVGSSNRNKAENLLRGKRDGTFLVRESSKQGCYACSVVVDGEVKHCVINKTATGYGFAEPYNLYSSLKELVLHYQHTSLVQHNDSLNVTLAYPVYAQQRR

The term Ki denotes a dissociation constant, usually derived from enzyme kinetics or from competition with a known ligand. A word on the IC50: it is the concentration needed to halve the response being measured. `CC(=O)Nc1ccc(Nc2ncccc2-c2nc(C)nc3[nH]cnc23)cc1Cl` [Example 181, N-(2-Chloro-4-(3-(2-Methyl-9H-Purin-6-yl)Pyridin-2-Ylamino)Phenyl)Acetamide]: the Ki in assay [1] is 754 nM. Also, in assay [2], the IC50 was determined as 562 nM.
The like results for `COc1ncc(Nc2ncc(CN3CCN(S(C)(=O)=O)[C@H](C)C3)cc2-c2nc(C)nc(N)n2)cc1F` [Example 364, (R)-4-(2-(5-Fluoro-6-Methoxypyridin-3-Ylamino)-5-((3-Methyl-4-(Methylsulfonyl)Piperazin-1-yl)Methyl)Pyridin-3-yl)-6-Methyl-1,3,5-Triazin-2-Amine] were, in that order, 5 nM and 7 nM.
For `COc1ncc(Nc2ncc([C@@H](C)N3CCN(S(C)(=O)=O)C[C@@H]3C)cc2-c2cc(N)nc(C)n2)cc1F` [Example 306, 6-(2-((5-fluoro-6-methoxy-3-pyridinyl)amino)-5-((1R)-1-((2S)-2-methyl-4-(methylsulfonyl)-1-piperazinyl)ethyl)-3-pyridinyl)-2-methyl-4-pyrimidinamine] the same measures were 1 nM and 3 nM.
For `COc1ncc(Nc2ncc([C@H](C)N3CCN(S(C)(=O)=O)C[C@@H]3C)cc2-c2nc(C)nc3[nH]cnc23)cc1F` [Example 296, N-(5-Fluoro-6-Methoxypyridin-3-yl)-5-((S)-1-((S)-2-Methyl-4-(Methylsulfonyl)Piperazin-1-yl)Ethyl)-3-(2-Methyl-9H-Purin-6-yl)Pyridin-2-Amine] the same measures were 18 nM and 51 nM.
Regarding `COc1ncc(Nc2ncc(C(O)C(C)(C)O)cc2-c2nc(C)nc(N)n2)cc1F` (centres unmarked) [Example 347, 1-(5-(4-Amino-6-Methyl-1,3,5-Triazin-2-yl)-6-(5-Fluoro-6-Methoxypyridin-3-Ylamino)Pyridin-3-yl)-2-Methylpropane-1,2-Diol], the Ki in assay [1] came to 75 nM. For the same molecule, in assay [2], the IC50 came out at 108 nM.
Take `COc1ccc(Nc2nc(N3CCCC3)ncc2-c2nc(C)nc(N)n2)cn1` [Example 122, 4-(4-(6-methoxypyridin-3-ylamino)-2-(pyrrolidin-1-yl)pyrimidin-5-yl)-6-methyl-1,3,5-triazin-2-amine]: the Ki in assay [1] was 51 nM. The IC50 in assay [2] turned out to be 725 nM.
For the molecule `COc1ccc(Nc2ncc(CN3CC4(C3)NC(=O)NC4=O)cc2-c2nc(C)nc(N)n2)cn1` [Example 230, 2-((5-(4-Amino-6-Methyl-1,3,5-Triazin-2-yl)-6-(6-Methoxypyridin-3-Ylamino)Pyridin-3-yl)Methyl)-2,5,7-Triazaspiro[3.4]Octane-6,8-Dione], the Ki in assay [1] stood at 68 nM. For the same molecule, the IC50 in assay [2] is 2470 nM.
Turning to `COc1ncc(Nc2ncc(CN3CCN4C(CCS4(=O)=O)C3)cc2-c2nc(C)nc(N)n2)cc1F` (centres unmarked) [Example 383, 4-(5-((1,1-Dioxidohexahydro-5H-Isothiazolo[2,3-A]Pyrazin-5-yl)Methyl)-2-((5-Fluoro-6-Methoxy-3-Pyridinyl)Amino)-3-Pyridinyl)-6-Methyl-1,3,5-Triazin-2-Amine], in assay [1], the Ki amounted to 7 nM. The IC50 in assay [2] was 8 nM.
Turning to `Cc1nc(N)nc(-c2cc(CN3CCN(S(C)(=O)=O)CC3)cnc2Nc2ccc3ncoc3c2)n1` [Example 39, N-(3-(4-Amino-6-Methyl-1,3,5-Triazin-2-yl)-5-((4-(Methylsulfonyl)Piperazin-1-yl)Methyl)Pyridin-2-yl)Benzo[D]Oxazol-6-Amine], the Ki in assay [1] was determined as 55 nM. Also, in assay [2], the IC50 is 46 nM.
Take `Cc1nc(N)nc(-c2cc(CN3CCN(S(C)(=O)=O)CC3)cnc2Nc2cnc(O)c(F)c2)n1` [Example 161, 5-(3-(4-Amino-6-Methyl-1,3,5-Triazin-2-yl)-5-((4-(Methylsulfonyl)Piperazin-1-yl)Methyl)Pyridin-2-Ylamino)-3-Fluoropyridin-2-ol]: in assay [1], the Ki is 36 nM. The IC50 in assay [2] came to 73 nM.
As to `COc1ccc(Nc2ncc(C(C)(O)C(F)(F)F)cc2-c2nc(C)nc(N)n2)cn1` (centres unmarked) [Example 320, 2-(5-(4-amino-6-methyl-1,3,5-triazin-2-yl)-6-(6-methoxypyridin-3-ylamino)pyridin-3-yl)-1,1,1-trifluoropropan-2-ol], the Ki in assay [1] stood at 124 nM. Besides, the IC50 in assay [2] came to 61 nM.
For the molecule `COc1ccc(Nc2ncc(N3CCC(O)C3)cc2-c2nc(C)nc3[nH]cnc23)cn1` (centres unmarked) [Example 98, 1-(6-(6-Methoxypyridin-3-Ylamino)-5-(2-Methyl-9H-Purin-6-yl)Pyridin-3-yl)Pyrrolidin-3-ol], the Ki in assay [1] is 79 nM. In addition, the IC50 in assay [2] worked out at 297 nM.
Turning to `Cc1nc(N)nc(-c2cc(Cl)cnc2NC2CCOCC2)n1` [Example 188, 4-(5-Chloro-2-(Tetrahydro-2H-Pyran-4-Ylamino)Pyridin-3-yl)-6-Methyl-1,3,5-Triazin-2-Amine], the inhibition constant (Ki) in assay [1] stood at 2080 nM. For the same molecule, in assay [2], the IC50 was above 10000 nM.
Take `Cc1nc(N)nc(-c2cc([C@@H](C)N3CCN(S(C)(=O)=O)CC3)cnc2Nc2ccc(Cl)nc2)n1` [Example 309, (R)-4-(2-(6-chloropyridin-3-ylamino)-5-(1-(4-(methylsulfonyl)piperazin-1-yl)ethyl)pyridin-3-yl)-6-methyl-1,3,5-triazin-2-amine]: the Ki in assay [1] came out at 44 nM. Also, the half-maximal inhibitory concentration (IC50) in assay [2] was found to be 46 nM.
As to `COc1ccc(Nc2ncc(C(N)C(F)(F)F)cc2-c2nc(C)nc(N)n2)cn1` (centres unmarked) [Example 324, 4-(5-(1-Amino-2,2,2-Trifluoroethyl)-2-(6-Methoxypyridin-3-Ylamino)Pyridin-3-yl)-6-Methyl-1,3,5-Triazin-2-Amine], the Ki in assay [1] came out at 59 nM. In addition, the half-maximal inhibitory concentration (IC50) in assay [2] worked out at 106 nM.
On to `Cc1nc(N)cc(-c2nc3ccccc3nc2Nc2cccc3[nH]ncc23)n1` [Example 180, 3-(6-Amino-2-Methylpyrimidin-4-yl)-N-(1H-Indazol-4-yl)Quinoxalin-2-Amine], for which, in assay [1], the Ki stood at 124 nM. Besides, the IC50 in assay [2] worked out at 1570 nM.
As to `Cc1nc(N)nc(-c2cc(CN3CCN(S(C)(=O)=O)C[C@@H]3C)cnc2Nc2ccc(Cl)nc2)n1` [Example 318, (S)-4-(2-(6-Chloropyridin-3-Ylamino)-5-((2-Methyl-4-(Methylsulfonyl)Piperazin-1-yl)Methyl)Pyridin-3-yl)-6-Methyl-1,3,5-Triazin-2-Amine], the Ki in assay [1] came to 32 nM. Moreover, the IC50 in assay [2] turned out to be 44 nM.
`COc1ccc(Nc2ncc(CN3CC(O)C3)cc2-c2nc(C)nc(N)n2)cn1` [Example 229, 1-((5-(4-Amino-6-Methyl-1,3,5-Triazin-2-yl)-6-(6-Methoxypyridin-3-Ylamino)Pyridin-3-yl)Methyl)Azetidin-3-ol]: in assay [1], the Ki came out at 59 nM. The IC50 in assay [2] came out at 276 nM.
Regarding `COc1ncc(Nc2ncc(C3CCOCC3)cc2-c2nc(C)nc(N)n2)cc1F` [Example 344, 4-(2-(5-Fluoro-6-Methoxypyridin-3-Ylamino)-5-(Tetrahydro-2H-Pyran-4-yl)Pyridin-3-yl)-6-Methyl-1,3,5-Triazin-2-Amine], the Ki in assay [1] is 5 nM. For the same molecule, in assay [2], the IC50 amounted to 14 nM.
As to `COc1ccc(Nc2ncc(C(=O)N3CCOCC3)cc2-c2nc(C)nc(N)n2)cn1` [Example 151, 4-(2-((6-Methoxy-3-Pyridinyl)Amino)-5-(4-Morpholinylcarbonyl)-3-Pyridinyl)-6-Methyl-1,3,5-Triazin-2-Amine], the Ki in assay [1] amounted to 64 nM. For the same molecule, in assay [2], the IC50 is 143 nM.
Regarding `COc1ccc(Nc2ncc([C@H](O)C(F)(F)F)cc2-c2nc(C)nc(N)n2)cn1` [Example 323, (S)-1-(5-(4-amino-6-methyl-1,3,5-triazin-2-yl)-6-(6-methoxypyridin-3-ylamino)pyridin-3-yl)-2,2,2-trifluoroethanol], in assay [1], the Ki stood at 34 nM. Also, in assay [2], the IC50 came to 46 nM.
On to `Cc1nc(N)nc(-c2cccnc2Nc2cc[nH]c(=O)c2)n1` [Example 263, 4-(3-(4-Amino-6-Methyl-1,3,5-Triazin-2-yl)Pyridin-2-Ylamino)Pyridin-2(1H)-One], for which, in assay [1], the inhibitory constant (Ki) was 643 nM. Moreover, the half-maximal inhibitory concentration (IC50) in assay [2] is above 10000 nM.
In the case of `Cc1nc(N)cc(-c2nccnc2Nc2cccc3[nH]ncc23)n1` [Example 112, N-(3-(6-amino-2-methylpyrimidin-4-yl)pyrazin-2-yl)-1H-indazol-4-amine], in assay [1], the Ki was determined as 98 nM. Further, the IC50 in assay [2] was determined as 450 nM.
In the case of `Cc1nc(N)nc(-c2cc([C@H](C)N3CCOCC3)cnc2Nc2cnc(Cl)c(NS(=O)(=O)N(C)C)c2)n1` [Example 374, (S)—N-(5-(3-(4-Amino-6-Methyl-1,3,5-Triazin-2-yl)-5-(1-Morpholinoethyl)Pyridin-2-Ylamino)-2-Chloropyridin-3-yl)-N,N-Dimethylaminosulfamide], in assay [1], the inhibitory constant (Ki) is 15 nM. In addition, the IC50 in assay [2] was 7 nM.
The like results for `COc1ncc(Nc2ncc([C@@H](C)N3CCN(S(C)(=O)=O)C[C@@H]3C)cc2-c2nc(C)nc(N)n2)cn1` [Example 362, 4-(2-(2-Methoxypyrimidin-5-Ylamino)-5-((R)-1-((S)-2-Methyl-4-(Methylsulfonyl)Piperazin-1-yl)Ethyl)Pyridin-3-yl)-6-Methyl-1,3,5-Triazin-2-Amine] were, in that order, 2 nM and 10 nM.
For `COc1ccc(Nc2ncc(Nc3ccccc3)cc2-c2nc(C)nc3[nH]cnc23)cn1` [Example 92, N2-(6-methoxypyridin-3-yl)-3-(2-methyl-9H-purin-6-yl)-N-5-phenylpyridine-2,5-diamine] the same measures were 33 nM and 916 nM.
With `Cc1nc(N)cc(-c2nccnc2Nc2cnc(Cl)c(NS(C)(=O)=O)c2)n1` [Example 307, N-(5-((3-(6-amino-2-methyl-4-pyrimidinyl)-2-pyrazinyl)amino)-2-chloro-3-pyridinyl)methanesulfonamide], the Ki in assay [1] came to 260 nM. Moreover, the IC50 in assay [2] was above 10000 nM.
For `COc1ccc(Nc2ncc(CN[C@H](C)CO)cc2-c2nc(C)nc(N)n2)cn1` [Example 226, (R)-2-((5-(4-Amino-6-Methyl-1,3,5-Triazin-2-yl)-6-(6-Methoxypyridin-3-Ylamino)Pyridin-3-yl)Methylamino)Propan-1-ol] the same measures were 354 nM and 573 nM.

(Values after patent US8772480B2, “Inhibitors of PI3 kinase and/or mTOR” (priority 2009, dated 2014).)
